Measured values from the supplement of paper PMC10307832.

Assays:
Experiment in all cases: relative viability (nuclei count vs DMSO), 5 days (fraction); higher = more cells survive
Gemcitabine + Pemetrexed = compound: Nc1ccn([C@@H]2O[C@H](CO)[C@@H](O)C2(F)F)c(=O)n1 [Gemcitabine] + Nc1nc2[nH]cc(CCc3ccc(C(=O)N[C@@H](CCC(=O)O)C(=O)O)cc3)c2c(=O)[nH]1 [Pemetrexed] (partner 0.2 µM)
How it was run: (§1)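 Values are medians from duplicate plates. Each reflects relative viability, defined as the nuclei count of treated wells over that of vehicle wells. Lung cancer cell lines in 1536-well plates were pin-tool dosed one day after seeding with one drug alone or with a fixed anchor-drug dose plus five library-drug doses (not always all listed) in √10 steps, then fixed, stained and imaged at 4× after 5 days.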

Gemcitabine + Navitoclax = compound: Nc1ccn([C@@H]2O[C@H](CO)[C@@H](O)C2(F)F)c(=O)n1 [Gemcitabine] + CC1(C)CCC(c2ccc(Cl)cc2)=C(CN2CCN(c3ccc(C(=O)NS(=O)(=O)c4ccc(N[C@H](CCN5CCOCC5)CSc5ccccc5)c(S(=O)(=O)C(F)(F)F)c4)cc3)CC2)C1 [Navitoclax] (partner 0.5 µM)
How it was run: as §1

Gemcitabine + Linsitinib = compound: Nc1ccn([C@@H]2O[C@H](CO)[C@@H](O)C2(F)F)c(=O)n1 [Gemcitabine] + C[C@]1(O)C[C@@H](c2nc(-c3ccc4ccc(-c5ccccc5)nc4c3)c3c(N)nccn32)C1 [Linsitinib] (partner 1 µM)
How it was run: as §1

Gemcitabine + Vorinostat = compound: Nc1ccn([C@@H]2O[C@H](CO)[C@@H](O)C2(F)F)c(=O)n1 [Gemcitabine] + O=C(CCCCCCC(=O)Nc1ccccc1)NO [Vorinostat] (partner 1 µM)
How it was run: as §1

Cell Line	relative viability (Gemcitabine + Pemetrexed; first compound 0.001 µM)	relative viability (Gemcitabine + Pemetrexed; first compound 0.003162 µM)	relative viability (Gemcitabine + Pemetrexed; first compound 0.01 µM)	relative viability (Gemcitabine + Pemetrexed; first compound 0.03162 µM)	relative viability (Gemcitabine + Pemetrexed; first compound 0.1 µM)	relative viability (Gemcitabine + Navitoclax; first compound 0.001 µM)	relative viability (Gemcitabine + Navitoclax; first compound 0.003162 µM)	relative viability (Gemcitabine + Navitoclax; first compound 0.01 µM)	relative viability (Gemcitabine + Navitoclax; first compound 0.03162 µM)	relative viability (Gemcitabine + Navitoclax; first compound 0.1 µM)	relative viability (Gemcitabine + Linsitinib; first compound 0.001 µM)	relative viability (Gemcitabine + Linsitinib; first compound 0.003162 µM)	relative viability (Gemcitabine + Linsitinib; first compound 0.01 µM)	relative viability (Gemcitabine + Linsitinib; first compound 0.03162 µM)	relative viability (Gemcitabine + Linsitinib; first compound 0.1 µM)	relative viability (Gemcitabine + Vorinostat; first compound 0.001 µM)	relative viability (Gemcitabine + Vorinostat; first compound 0.003162 µM)	relative viability (Gemcitabine + Vorinostat; first compound 0.01 µM)	relative viability (Gemcitabine + Vorinostat; first compound 0.03162 µM)	relative viability (Gemcitabine + Vorinostat; first compound 0.1 µM)
LOU-NH91	0.397	0.413	0.441	0.269	0.286	0.717	0.448	0.292	0.213	0.213	0.922	0.686	0.547	0.311	0.281	0.943	0.761	0.421	0.22	0.268
LU99A	0.177	0.181	0.186	0.198	0.214	0.875	0.976	0.667	0.871	0.474	0.601	0.597	0.487	0.576	0.554	0.509	0.577	0.502	0.523	0.531
LXF-289	0.901	0.964	0.642	0.102	0.0843	0.934	0.925	0.655	0.084	0.0735	0.957	0.953	0.751	0.147	0.107	0.754	0.731	0.292	0.107	0.0902
NCI-H23	0.555	0.223	0.147	0.143	0.143	0.866	0.245	0.125	0.139	0.124	0.447	0.226	0.123	0.11	0.118	0.504	0.122	0.11	0.106	0.109
NCI-H322M	0.658	0.367	0.273	0.329	0.363	0.96	0.52	0.286	0.207	0.228	0.777	0.474	0.3	0.274	0.267	0.864	0.408	0.337	0.384	0.44
NCI-H441	0.277	0.282	0.217	0.16	0.115	0.348	0.211	0.171	0.189	0.102	0.513	0.339	0.102	0.11	0.128	0.717	0.265	0.182	0.157	0.123
NCI-H460	0.06	0.0638	0.0721	0.029	0.019	1.09	1.05	0.533	0.0127	0.0085	0.714	0.878	0.0967	0.0138	0.0057	0.855	0.736	0.458	0.0301	0.0175
NCI-H520	0.663	0.719	0.275	0.177	0.161	1.23	1.17	0.35	0.205	0.158	1.13	0.917	0.482	0.186	0.131	0.728	0.81	0.336	0.211	0.157
